Source: article PMC8878047 (Pharmaceutics, 2022)
Read-outs that look alike come from different tables or passages of the source.

Tests used:
[1] = Pharmacokinetic study in plasma after oral administration (HPLC-MS); conditions: SD rats, EFX 10 mg/kg, EFX-Ca 12 mg/kg
E. coli = test: Quasi-clinical trial on E. coli-infected 817 broilers (drug-mixed feeding); conditions: for Average Final Weight / Average Weight Gain / Average Increment of Weight / Cure Rate (%) / Survival Number: 817 broilers; for Average Weight Gain: Table 7; for Average Increment of Weight: Table 8; for Cure Rate (%) / Survival Number: 6 d; for Survival Number: 50 per group
Procedure: Then, broilers were randomly and equally divided into five different groups and marked as five groups. […] Note that the daily drug-mixed feeding ratio (g drug/kg feed) was indicated for the first 4 h every day, and unmedicated feed then followed. In addition, E. coli strains for the infection of chicken was supplied as a freeze-dried powder. They were revived and cultured according to the standard procedures. The strain was inoculated into a liquid medium and cultured in a 37 °C incubator for 6–8 h. We detected the concentration of the bacterial liquid to be 2.8 × 10^8 CFU/mL as the pathogenic concentration. Finally, all of the chickens except the healthy control group were intramuscularly injected with 0.5 mL of pathogenic bacteria, and all chickens were fasted for 4 h. After successfully simulating the bacterial infection of the chickens, the drug-mixed feeding chickens were continuously fed for 6 d. During this time, we observed their behavioral habits, mortality, and recovery rates.

[2] = tested on: H2O2-induced ROS production; test: H2O2-induced oxidative stress model in zebrafish (DCFH-DA); conditions: 48 h pre-treatment, H2O2 1.0 mM 4 h, H2O2-induced 17,250, control 590
[3] = tested on: neutrophil cluster aggregation; test: CuSO4-induced inflammation model in Tg(mpx:eGFP) zebrafish; conditions: 10 μM CuSO4 40 min, Tg(mpx:eGFP) 3 dpf
[4] = Experimental: All tests were conducted in the animal experimental center of Guangxi Medical University. Preliminary experiments were needed before starting official tests. […] Groups of mice (n = 10 per group, half male and half female) received different doses of the tested compounds by gavage at the same single dose of drug solution, which was uniformed to be […] (drug solution)/10 g, but containing different concentration of tested drugs. […] We compared these mice with the control group in which the mice were not given drugs, according to the pre-experimental procedure. We closely observed the mice for 6 h after the gavage for signs of toxicity and mortality. As soon as death occurred among the maximum-dose group, we conducted an autopsy and took samples from the main organs for histopathological examination. In addition, we monitored all of the tested mice for 2 weeks to record their weight and mortality.
[5] = EFX-Ca High 14 g + 0.75 kg feed
[6] = EFX-Ca High 14 g drug (5% solution) + 0.75 kg feed/4 h
[7] = EFX-Ca Low 6 g drug (5% solution) + 0.75 kg feed/4 h
[8] = EFX-Ca Medium 9 g + 0.75 kg feed
[9] = EFX-Ca Medium 9 g drug (5% solution) + 0.75 kg feed/4 h

Question: With `CCN1CCN(c2cc3c(cc2F)c(=O)c(C(=O)[O-])cn3C2CC2)CC1.CCN1CCN(c2cc3c(cc2F)c(=O)c(C(=O)[O-])cn3C2CC2)CC1.O.O.O.O.[Ca+2]` [EFX-Ca, [Ca(EFX)2(H2O)4]·H2O] as the compound, how does the Ke ([1]; plasma) read?
Answer: 0.16

Question: And the Tmax ([1]; plasma)?
Answer: 0.75 H

Question: And the Vd ([1]; plasma)?
Answer: 0.26744 L/kg

Question: And the “t 1/2β” value ([1]; plasma)?
Answer: 4.41 H

Question: And the concentration at 0 h ([1]; male, SD, rat, in vivo, Drug concentration in plasma, 0 h)?
Answer: 80 ng/mL

Question: And the concentration at 0.083 h ([1]; male, SD, rat, in vivo, Drug concentration in plasma, 0.083 h)?
Answer: 860 ng/mL

Question: And the concentration at 0.333 h ([1]; male, SD, rat, in vivo, Drug concentration in plasma, 0.333 h)?
Answer: 840 ng/mL

Question: What about the concentration at 0.5 h ([1]; male, SD, rat, in vivo, Drug concentration in plasma, 0.5 h) of the same compound?
Answer: 1690 ng/mL

Question: And the concentration at 0.75 h ([1]; male, SD, rat, in vivo, Drug concentration in plasma, 0.75 h)?
Answer: 1920 ng/mL

Question: What about the concentration at 1 h ([1]; male, SD, rat, in vivo, Drug concentration in plasma, 1 h) of the same compound?
Answer: 1390 ng/mL

Question: What about the concentration at 3 h ([1]; male, SD, rat, in vivo, Drug concentration in plasma, 3 h) of the same compound?
Answer: 770 ng/mL

Question: And the concentration at 4 h ([1]; male, SD, rat, in vivo, Drug concentration in plasma, 4 h)?
Answer: 700 ng/mL

Question: And the concentration at 6 h ([1]; male, SD, rat, in vivo, Drug concentration in plasma, 6 h)?
Answer: 580 ng/mL

Question: And the concentration at 8 h ([1]; male, SD, rat, in vivo, Drug concentration in plasma, 8 h)?
Answer: 480 ng/mL

Question: And the concentration at 10 h ([1]; male, SD, rat, in vivo, Drug concentration in plasma, 10 h)?
Answer: 100 ng/mL

Question: And the concentration at 12 h ([1]; male, SD, rat, in vivo, Drug concentration in plasma, 12 h)?
Answer: 140 ng/mL

Question: What about the concentration at 24 h ([1]; male, SD, rat, in vivo, Drug concentration in plasma, 24 h) of the same compound?
Answer: 90 ng/mL

Question: And the “Average Final Weight” value (E. coli; [5])?
Answer: 1000 ± 51 g

Question: And the “Average Weight Gain” value (E. coli; [5])?
Answer: 70

Question: What about the “Average Increment of Weight” value (E. coli; [5]) of the same compound?
Answer: 80 g

Question: And the “Cure Rate (%)” value (E. coli; [6])?
Answer: 58%

Question: And the “Survival Number” value (E. coli; [6])?
Answer: 29

Question: What about the “Average Final Weight” value (E. coli; EFX-Ca Low 6 g + 0.75 kg feed) of the same compound?
Answer: 1210 ± 67 g

Question: And the “Average Weight Gain” value (E. coli; EFX-Ca Low 6 g + 0.75 kg feed)?
Answer: 280

Question: And the “Average Increment of Weight” value (E. coli; EFX-Ca Low 6 g + 0.75 kg feed)?
Answer: 260 g

Question: What about the “Cure Rate (%)” value (E. coli; [7]) of the same compound?
Answer: 88%

Question: And the “Survival Number” value (E. coli; [7])?
Answer: 44

Question: What about the “Average Final Weight” value (E. coli; [8]) of the same compound?
Answer: 1010 ± 61 g

Question: What about the “Average Weight Gain” value (E. coli; [8]) of the same compound?
Answer: 80

Question: What about the “Average Increment of Weight” value (E. coli; [8]) of the same compound?
Answer: 140 g

Question: What about the “Cure Rate (%)” value (E. coli; [9]) of the same compound?
Answer: 80%

Question: What about the “Survival Number” value (E. coli; [9]) of the same compound?
Answer: 40

Question: And the “highest cure rate, higher than the EFX dose group by” value (E. coli; 817 infected chickens, EFX-Ca low dose vs EFX)?
Answer: 37.5%

Question: And the “Average IOD (integrated optical density) of green fluorescence” value (“Average IOD (integrated optical density)” below) ([2]; 0.01 μM)?
Answer: 1060 a.u.

Question: And the “Average IOD (integrated optical density)” value ([2]; 0.1 μM)?
Answer: 721 a.u.

Question: And the “Average IOD (integrated optical density)” value ([2]; 1 μM)?
Answer: 863 a.u.

Question: What about the CuSO4-induced neutrophil aggregation ([3]; 0.1 μM pre-incubation 1 h) of the same compound?
Answer: significantly dispersed

Question: And the CuSO4-induced neutrophil aggregation ([3]; 1 μM pre-incubation 1 h)?
Answer: the neutrophil aggregation was more effectively inhibited

Question: What about the “Body Weight (g, x¯ ± SD)” value ([4]; 2000 mg/kg single gavage, Day-0) of the same compound?
Answer: 17.51 ± 1.14 g

Question: What about the “Body Weight (g, x¯ ± SD)” value ([4]; 2000 mg/kg single gavage, Day-1) of the same compound?
Answer: 19.77 ± 1.22 g

Question: What about the “Body Weight (g, x¯ ± SD)” value ([4]; 2000 mg/kg single gavage, Day-4) of the same compound?
Answer: 25.91 ± 1.83 g

Question: And the “Body Weight (g, x¯ ± SD)” value ([4]; 2000 mg/kg single gavage, Day-7)?
Answer: 29.78 ± 3.46 g

Question: What about the “Body Weight (g, x¯ ± SD)” value ([4]; 2000 mg/kg single gavage, Day-14) of the same compound?
Answer: 33.33 ± 5.64 g

Question: What about the “Body Weight (g, x¯ ± SD)” value ([4]; 3031 mg/kg single gavage, Day-0) of the same compound?
Answer: 18.32 ± 0.94 g

Question: What about the “Body Weight (g, x¯ ± SD)” value ([4]; 3031 mg/kg single gavage, Day-1) of the same compound?
Answer: 19.61 ± 1.23 g

Question: And the “Body Weight (g, x¯ ± SD)” value ([4]; 3031 mg/kg single gavage, Day-4)?
Answer: 25.70 ± 1.24 g

Question: And the “Body Weight (g, x¯ ± SD)” value ([4]; 3031 mg/kg single gavage, Day-7)?
Answer: 28.44 ± 2.14 g

Question: And the “Body Weight (g, x¯ ± SD)” value ([4]; 3031 mg/kg single gavage, Day-14)?
Answer: 33.91 ± 5.25 g

Question: What about the “Body Weight (g, x¯ ± SD)” value ([4]; 4595 mg/kg single gavage, Day-0) of the same compound?
Answer: 17.31 ± 1.05 g

Question: What about the “Body Weight (g, x¯ ± SD)” value ([4]; 4595 mg/kg single gavage, Day-1) of the same compound?
Answer: 17.09 ± 1.56 g

Question: What about the “Body Weight (g, x¯ ± SD)” value ([4]; 4595 mg/kg single gavage, Day-4) of the same compound?
Answer: 20.10 ± 5.55 g

Question: And the “Body Weight (g, x¯ ± SD)” value ([4]; 4595 mg/kg single gavage, Day-7)?
Answer: 26.43 ± 5.34 g

Question: And the “Body Weight (g, x¯ ± SD)” value ([4]; 4595 mg/kg single gavage, Day-14)?
Answer: 33.60 ± 7.07 g

Question: What about the “Body Weight (g, x¯ ± SD)” value ([4]; 6964 mg/kg single gavage, Day-0) of the same compound?
Answer: 17.68 ± 0.88 g

Question: And the “Body Weight (g, x¯ ± SD)” value ([4]; 6964 mg/kg single gavage, Day-1)?
Answer: 17.21 ± 1.22 g

Question: And the “Body Weight (g, x¯ ± SD)” value ([4]; 6964 mg/kg single gavage, Day-4)?
Answer: 16.89 ± 5.13 g

Question: What about the “Body Weight (g, x¯ ± SD)” value ([4]; 6964 mg/kg single gavage, Day-7) of the same compound?
Answer: 23.11 ± 4.21 g

Question: What about the “Body Weight (g, x¯ ± SD)” value ([4]; 6964 mg/kg single gavage, Day-14) of the same compound?
Answer: 29.30 ± 5.26 g

Question: And the “Body Weight (g, x¯ ± SD)” value ([4]; 10,556 mg/kg single gavage, Day-0)?
Answer: 17.67 ± 0.72 g

Question: And the “Body Weight (g, x¯ ± SD)” value ([4]; 10,556 mg/kg single gavage, Day-1)?
Answer: 17.00 ± 0.30 g

Question: And the “Body Weight (g, x¯ ± SD)” value ([4]; 10,556 mg/kg single gavage, Day-4)?
Answer: 21.53 ± 2.10 g

Question: What about the “Body Weight (g, x¯ ± SD)” value ([4]; 10,556 mg/kg single gavage, Day-7) of the same compound?
Answer: 26.47 ± 3.50 g

Question: What about the “Body Weight (g, x¯ ± SD)” value ([4]; 10,556 mg/kg single gavage, Day-14) of the same compound?
Answer: 34.00 ± 7.50 g

Question: What about the “Body Weight (g, x¯ ± SD)” value ([4]; 16,000 mg/kg single gavage, Day-0) of the same compound?
Answer: 17.84 ± 1.23 g

Question: What about the “Body Weight (g, x¯ ± SD)” value ([4]; 16,000 mg/kg single gavage, Day-1) of the same compound?
Answer: 17.43 ± 1.95 g

Question: And the “Body Weight (g, x¯ ± SD)” value ([4]; 16,000 mg/kg single gavage, Day-4)?
Answer: 23.55 ± 2.66 g

Question: And the “Body Weight (g, x¯ ± SD)” value ([4]; 16,000 mg/kg single gavage, Day-7)?
Answer: 29.15 ± 2.66 g

Question: And the “Body Weight (g, x¯ ± SD)” value ([4]; 16,000 mg/kg single gavage, Day-14)?
Answer: 37.25 ± 4.57 g
